Laboratory results from BindingDB's records for doi:10.1021/jm980108d (Prassis Istituto Di Ricerche Sigma-Tau, 1998).

Target: Sodium/potassium-transporting ATPase (Canis familiaris)
Assay: Compound was evaluated for its ability to inhibit the specific [3H]-ouabain binding to dog kidney Na+/K+ ATPase

SMILES | IC50 [nM]
C[C@]12CC[C@H](O)C[C@H]1CC[C@@H]1[C@@H]2CC[C@]2(C)[C@@H](/C=C/C=O)CC[C@]12O | 60
C[C@H]1/C(=C/C(=O)OCCN(C)C)CCC2C1C(=O)C[C@H]1C(C)(C)[C@@H](O)CC[C@]21C (stereo partly drawn) [[(1R,4bR,7S,8aR)-7-Hydroxy-1,4b,8,8-tetramethyl-10-oxo-dodecahydro-phenanthren-(2E)-ylidene]-acetic acid 2-dimethylamino-ethyl ester] | 100
